The structures appear in SMILES notation.

The data set is described as follows: gradient 5% acetonitrile 3 min, to 50% in 2 min, to 85% in 15 min, held 3 min, 100 µL/min. To be noted: column: Zorbax Extend-C18 2.1 x 50 mm; eluents: water / acetonitrile, 0.1% formic acid. In a few lines: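 The system's dead and dwell volumes were 40 μL and 900 μL, with a Zorbax Extend-C18 column (2.1 × 50 mm, 1.8 μm) run at 100 μL/min in water and acetonitrile containing 0.1% formic acid each. Pure standards were analyzed in mixtures of ~100 molecules by HPLC–quadrupole time-of-flight mass spectrometry in positive and negative ionization mode. Retention time was assigned from computationally picked, manually inspected adduct peaks.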
On to `CC1Oc2ccc(-c3csc(NC(=O)C(C)(C)C)n3)cc2N(C)C1=O` (centres undefined), for which the RP-LC retention time is 963 s. For `CSc1ccc(-c2nc3ccccn3c2Nc2ccc(Cl)cc2)cc1`, the RP-LC retention time turned out to be 779 s.

`O=C(CN1CCN(Cc2ccc(F)cc2)C1=O)NCc1cccc(F)c1` returned an RP-LC retention time of 790 s. In the case of `O=C1CCCc2cc(S(=O)(=O)N3CCC(C(=O)N4CCN(c5ccccc5)CC4)CC3)ccc2N1`, the RP-LC retention time worked out at 754 s.

`O=C(NCc1cccc(F)c1)N1CCC(Nc2cccnc2)C1` (centres undefined) displayed an RP-LC retention time of 606 s. With `CCOc1ccc(-c2nc(CN3CCN(C(=O)NC4CCCCC4)CC3)c(C)o2)cc1`, the RP-LC retention time was determined as 718 s. For the compound `CC(C)CN1Cc2ccccc2-n2ccnc2C12CCN(C(=O)c1ccccc1F)CC2`, the RP-LC retention time amounted to 650 s. Consider `COCCN1C(=O)CC[C@]2(C(=O)N(C)CCc3ccccn3)CCCC[C@@H]12`, for which the RP-LC retention time amounted to 546 s. Next, `O=C(Cc1csc2nc(-c3ccccc3)cn12)NCCC1=CCCCC1`: 864 s. `O=C(Nc1ccc2nc3n(c(=O)c2c1)CCCCC3)C(=O)N1CCCC1`: the RP-LC retention time came out at 684 s. `O=C(Nc1cnc(N2CCCCC2)nc1)c1ccsc1`: the RP-LC retention time came out at 800 s. `COc1c(O)ccc2c1CN1CCc3cc4c(cc3C1C2)OCO4` (centres undefined) gave an RP-LC retention time of 688 s. `O=C(CCCN1C(=O)c2cccc3cccc(c23)C1=O)N1CCN(c2ncccn2)CC1` returned an RP-LC retention time of 723 s. `CNC(=O)c1ccsc1NC(=O)c1cn(C)nc1OC` came in with an RP-LC retention time of 616 s. `O=S(=O)(Nc1ccc(Cn2cncn2)cc1)c1cc(F)cc(F)c1` registered an RP-LC retention time of 708 s. In turn, `O=C(Cn1cccc1-c1nnc(C2CC2)o1)NCc1ccc(Cl)cc1` gave an RP-LC retention time of 825 s.

Turning to `CNC(=O)Nc1ccc(C2(C(=O)NCc3ccc(F)cc3Cl)CCC2)cc1`, the RP-LC retention time was found to be 784 s. Next, `CCOc1cc(C(=O)NC2CCN(c3cc(-c4ccc(F)cc4)[nH]n3)C2)cc(OCC)c1OCC` (centres undefined): 858 s; `COc1ccc(S(=O)(=O)N2CCN(c3cc(-n4ccnc4)nc(C)n3)CC2)cc1Cl`: 664 s.

Compound `CCOC(=O)CC1(NC(=O)N2CCCn3nc(-c4ccncc4)cc3C2)CCCCC1` yielded an RP-LC retention time of 595 s. For `CCC(C)NC(=O)CCn1c(=O)c2ccccc2n2c(=O)n(Cc3ccc(F)cc3)nc12` (centres undefined) the value was 890 s; for `Cc1cccc(N2CCn3c2nc2c3c(=O)n(CC(=O)O)c(=O)n2C)c1`, 689 s; for `Cc1noc(C)c1CC(=O)N1CCc2c(c(-c3nncn3C)nn2C)C1`, 591 s. For `CCn1c(SCC(=O)Nc2nc(-c3ccc(C)cc3)cs2)nnc1-c1cc2ccccc2o1` the value was 1140 s; for `CC(Oc1ccc(=O)n(-c2ccc(F)cc2)n1)C(=O)Nc1ccccc1F` (centres undefined), 772 s; for `Nc1nc(N2CCOCC2)ncc1C(=O)Nc1ccccc1`, 611 s. `Cc1ccc(N2CC(c3noc(-c4cccc(C)c4)n3)CC2=O)cc1` (centres undefined) showed an RP-LC retention time of 1090 s. As to `O=C(c1cn2c(n1)CSCC2)N1CCC(Cc2ccccc2)CC1`, the RP-LC retention time stood at 720 s.

`O=C(NCc1ccc(N2CCCCCC2)nc1)c1cncc(Br)c1` came in with an RP-LC retention time of 603 s. On to `COc1ccc(-n2c(=O)c(C(=O)Nc3cccc(F)c3)c(O)c3cccnc32)cc1`, for which the RP-LC retention time was 1250 s. `COc1ccc2c(c1)C1(CCN(C(=O)NCc3ccc(F)cc3)C1)C(=O)N2C` (centres undefined) showed an RP-LC retention time of 755 s.

In turn, `CSc1ccc(-c2nc3ccc(C)cn3c2Nc2ccccc2C)cc1` yielded an RP-LC retention time of 795 s. `COC(=O)c1ccccc1NC(=O)N1CCN(c2ccc(=O)n(-c3ccccc3)n2)CC1` showed an RP-LC retention time of 876 s. For `CCC1CN2C=NC(N3CCN(C(=O)Nc4ccc(OC)cc4C)CC3)=CC2=N1` (centres undefined) the value was 612 s. For `O=C(Nc1cnc(N2CCC(N3CCCCC3)CC2)c(C(=O)O)c1)c1ccc(Br)cc1` the value was 637 s; for `Cc1noc(C)c1S(=O)(=O)N1CC(N(C)Cc2cccnc2)C1`, 594 s. `CCCN1C(=O)COc2ccc(-c3csc(NC(=O)c4cc(OC)c(OC)c(OC)c4)n3)cc21`: the RP-LC retention time was found to be 1040 s.

For `Cn1cc(-c2nc(C(=O)Nc3ccc(F)cc3)cs2)c2cccnc21`, the RP-LC retention time turned out to be 973 s. In the case of `COC(=O)c1ccc(C(=O)NCC2(CO)CC2)cc1`, the RP-LC retention time turned out to be 611 s. Turning to `CCOC(=O)N1CCC2(CC1)N=C(c1ccc(OCC)cc1)CC(c1ccccc1O)N2` (centres undefined), the RP-LC retention time is 772 s.

Turning to `CCOC(=O)c1ccc(NC(=O)c2cc3c(=O)n(CC(C)C)c4ccccc4n3n2)cc1`, the RP-LC retention time came out at 750 s. `Cc1ccc(C(=O)N2C[C@@H](F)C[C@H]2C(=O)N2CCOCC2)cc1` returned an RP-LC retention time of 621 s.

Turning to `Cc1ncc2c(n1)C[C@@H]1CC[C@H]2N1C(=O)c1sccc1C`, the RP-LC retention time amounted to 654 s. Turning to `COc1cc(OC)cc(-c2noc(-c3nn(-c4ccc(Cl)cc4)ccc3=O)n2)c1`, the RP-LC retention time was determined as 973 s.

The compound `CCCN1CCN(C(=O)C2CCN(S(=O)(=O)c3ccc4c(c3)sc(=O)n4CCC)CC2)CC1` showed an RP-LC retention time of 658 s. `O=S(=O)(c1ccc(Cl)s1)N1CCC(c2nnc(-c3ccco3)o2)CC1` had an RP-LC retention time of 868 s. For `CCN(CC)CCNC(=O)Cn1nc(-n2cccc2)c2c(C)cc(C)nc21` the value was 636 s; for `COc1ccc(-c2noc(Cn3cnc4c(oc5ccccc54)c3=O)n2)cc1OC`, 846 s. In the case of `O=C(c1ccc(F)cc1)N1CCN(S(=O)(=O)c2cc3c4c(c2)CCC(=O)N4CCC3)CC1`, the RP-LC retention time was 808 s. `CCc1nnc(-c2cccc(OCC(=O)N3CCCc4ccccc43)c2)o1` yielded an RP-LC retention time of 814 s. `CCN1c2cc(C(=O)NC3CCN(Cc4ccccc4)CC3)ccc2C(=O)N2CCCCC21` (centres undefined) returned an RP-LC retention time of 638 s. The compound `O=C(NCc1ccsc1)C(=O)Nc1ccon1` showed an RP-LC retention time of 665 s. With `COc1ccc(-c2nc3cnccn3c2Nc2ccc(C)cc2Br)cc1`, the RP-LC retention time was 1040 s. On to `CC(C)NC(=O)N1CCc2c(c(-c3nc(Cc4ccccc4)no3)nn2C)C1`, for which the RP-LC retention time came to 748 s.

`COc1ccc(NC(=O)c2cnc(-c3ccc(OC)cc3)nc2-c2ccncc2)cc1` had an RP-LC retention time of 829 s. On to `CC(C)Cn1c(=O)c2ccccc2n(Cc2nc(-c3cccc(Br)c3)no2)c1=O`, for which the RP-LC retention time amounted to 1290 s.

Compound `CN(C)CCn1nnc2cc(-c3noc(-c4ccccc4Br)n3)ccc21` showed an RP-LC retention time of 681 s. Consider `COc1cccc(N2CCN(C(=O)c3cc4c(=O)n(C)ccc4n3C)CC2)c1`, for which the RP-LC retention time is 700 s.

The compound `CC1=C(c2ccc(C)cc2)S(=O)(=O)N=C1N1CCC(NC(=O)Cc2ccsc2)CC1` had an RP-LC retention time of 867 s. Take `COc1ccc(-c2noc(Cc3nc(-c4ccc(Cl)cc4)cs3)n2)cc1`: the RP-LC retention time turned out to be 1270 s. Take `O=C(Nc1nc2c(Cl)cccc2s1)C1COc2ccccc2O1` (centres undefined): the RP-LC retention time worked out at 983 s. For the compound `CCOC(=O)c1cc(C)nc2c1c(=O)n(Cc1ccccc1C)c(=O)n2C`, the RP-LC retention time came to 872 s. `CCOc1ccc2nc(Nc3ncc4c(n3)CC(c3ccccc3)CC4=O)nc(C)c2c1` (centres undefined) came in with an RP-LC retention time of 831 s. Compound `COc1ccc(NC(=O)Cn2nc3cc(-c4ccccc4)nc(C)n3c2=O)cc1OC` showed an RP-LC retention time of 830 s. As for `O=C1NC(c2cccc3ccccc23)Nc2ccc(Cl)cc21` (centres undefined), the RP-LC retention time is 847 s. Next, `CCNC(=O)c1nn(-c2ccc(OC)c(OC)c2)c(OC)cc1=O`: 626 s.

In turn, `Cc1noc(/C=C\c2ccc(S(=O)(=O)N3CCN(c4ccccn4)CC3)cc2)c1NC(=O)C1CC1` showed an RP-LC retention time of 661 s.

`CC(NC(=O)c1cccc2[nH]ccc12)C(=O)N1CCCc2ccccc21` (centres undefined) yielded an RP-LC retention time of 822 s.

Turning to `COc1ccc(-c2nnc(Cc3nc(-c4ccccc4F)no3)o2)cc1OC`, the RP-LC retention time worked out at 848 s. For `COc1ccc(-c2nc(Cn3ccnc3)no2)cc1` the value was 599 s; for `CC(C)CNC(=O)c1cc2c(s1)N(CC1CC1)CCCC2`, 1040 s.

The compound `COc1ccc(OCc2noc(CNS(=O)(=O)Cc3ccccc3)n2)cc1` displayed an RP-LC retention time of 824 s. Next, `COc1ccc(-c2noc(C3(NC(=O)c4ccc(C(F)(F)F)cc4)CCCCC3)n2)cc1`: 1260 s.

As for `CCCn1c2ccccc2c2cnn(CC(=O)NCCN3CC(C)CC(C)C3)c(=O)c21` (centres undefined), the RP-LC retention time stood at 701 s. `O=C(NCc1cccc(Br)c1)c1ccc2ncnc(N3CCCC3)c2c1`: the RP-LC retention time came out at 679 s. Next, `CC(=O)Nc1ccc(C2(C(=O)NCc3ccc(C)cc3)CCC2)cc1`: 790 s; `O=C(NCc1ccccc1)C1c2ccccc2CC(=O)N1Cc1ccccc1` (centres undefined): 850 s. For `CCOC(=O)c1c(C)n(-c2ccc(N(C)C)cc2)c2ccc(OCC(N)=O)cc12` the value was 938 s. Turning to `Cc1ccc(NC(=O)c2cccn2Cc2noc(C3CC3)n2)c(Cl)c1`, the RP-LC retention time was found to be 1030 s.

The values are drawn from the METLIN SMRT retention time set (Domingo-Almenara et al. 2019).
